In one test the target is human orexin-1 receptor (Homo sapiens (Human), UniProt O43613). As to the kind of experiment: Intracellular calcium measurements (FLIPR), antagonism of orexin-A response. It is filed as cell-based. The note with it: CHO cells expressing human orexin-1 receptor, 3 nM orexin-A, geometric mean if determined several times, read-out: IC50 OX1. The method, boiled down: (§1)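 CHO cells expressing human OX1 or OX2 receptor, loaded with fluo-4 AM plus probenecid, preincubated with antagonist 120 min before 3 nM orexin-A challenge. FLIPR calcium peak heights compared with agonist-plus-vehicle response. IC50 possibly normalized to on-plate reference; geometric mean of repeat determinations.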
Sequence of human orexin-1 receptor (O43613 whole entry): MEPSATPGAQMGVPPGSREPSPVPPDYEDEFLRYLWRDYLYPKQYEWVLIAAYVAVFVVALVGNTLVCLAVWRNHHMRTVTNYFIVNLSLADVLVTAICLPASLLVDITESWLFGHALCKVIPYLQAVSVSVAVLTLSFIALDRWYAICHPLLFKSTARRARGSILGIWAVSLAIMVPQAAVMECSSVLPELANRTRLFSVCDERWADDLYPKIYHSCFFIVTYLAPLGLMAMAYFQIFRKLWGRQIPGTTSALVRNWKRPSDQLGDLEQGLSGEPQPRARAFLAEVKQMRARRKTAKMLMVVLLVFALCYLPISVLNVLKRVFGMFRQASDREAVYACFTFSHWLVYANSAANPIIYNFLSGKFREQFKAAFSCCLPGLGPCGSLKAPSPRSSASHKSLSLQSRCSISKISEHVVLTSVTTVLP
(In general: Calcium flux is commonly read through the fluorescence of an indicator in the cells.)

Another test deals with human orexin-2 receptor (Homo sapiens (Human), UniProt O43614). Described as above. It is filed as cell-based. The note with it: CHO cells expressing human orexin-2 receptor, 3 nM orexin-A, geometric mean if determined several times, read-out: IC50 OX2. The method, boiled down: as §1
Sequence of human orexin-2 receptor (O43614 whole entry): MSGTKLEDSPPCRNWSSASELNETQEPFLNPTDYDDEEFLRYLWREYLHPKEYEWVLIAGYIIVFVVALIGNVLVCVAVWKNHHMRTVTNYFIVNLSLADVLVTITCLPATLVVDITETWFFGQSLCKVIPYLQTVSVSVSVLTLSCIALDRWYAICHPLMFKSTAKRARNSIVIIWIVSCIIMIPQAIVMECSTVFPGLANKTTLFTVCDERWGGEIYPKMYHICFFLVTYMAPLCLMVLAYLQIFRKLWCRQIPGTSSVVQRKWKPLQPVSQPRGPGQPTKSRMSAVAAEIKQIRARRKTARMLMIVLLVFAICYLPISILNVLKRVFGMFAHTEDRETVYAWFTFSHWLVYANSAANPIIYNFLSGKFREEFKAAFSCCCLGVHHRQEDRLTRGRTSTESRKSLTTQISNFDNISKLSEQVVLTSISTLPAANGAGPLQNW

Molecules are shown by their SMILES. pIC50: −log10 of the molar value.

On to `Cc1c(Cl)cccc1-c1noc([C@@H]2CCN2C(=O)c2ccccc2-c2ccccc2)n1` [Example 73, Biphenyl-2-yl-{(S)-2-[3-(3-chloro-2-methyl-phenyl)-[1,2,4]oxadiazol-5-yl]-azetidin-1-yl}-methanone], for which the values for the negative logarithm of the IC50 (pIC50) at human orexin-1 receptor and on human orexin-2 receptor were 6.42 and 7.70, respectively.
The like results for `Cc1cccc(-n2nccn2)c1C(=O)N1CC[C@H]1c1nc(-c2cccc(Cl)c2C)no1` [Example 64, {(S)-2-[3-(3-Chloro-2-methyl-phenyl)-[1,2,4]oxadiazol-5-yl]-azetidin-1-yl}-(2-methyl-6-[1,2,3]triazol-2-yl-phenyl)-methanone] were, in that order, 6.09 and 7.16.
The corresponding values for `CCCOc1ccccc1-c1noc([C@@H]2CCN2C(=O)c2cc(C)ccc2-n2nccn2)n1` [Example 6, (5-Methyl-2-[1,2,3]triazol-2-yl-phenyl)-{(S)-2-[3-(2-propoxy-phenyl)-[1,2,4]oxadiazol-5-yl]-azetidin-1-yl}-methanone] are 6.33 and 6.94.
The like results for `CCOc1ncccc1-c1nc([C@@H]2CCN2C(=O)c2cc(OC)c(C)cc2-n2nccn2)no1` [Example 92, {(S)-2-[5-(2-Ethoxy-pyridin-3-yl)-[1,2,4]oxadiazol-3-yl]-azetidin-1-yl}-(5-methoxy-4-methyl-2-[1,2,3]triazol-2-yl-phenyl)-methanone] were, in that order, 7.43 and 9.00.
Take `Cc1ccc(-n2nccn2)c(C(=O)N2CC[C@H]2c2nc(-c3cc(C)ccc3C)no2)c1` [Example 10, {(S)-2-[3-(2,5-Dimethyl-phenyl)-[1,2,4]oxadiazol-5-yl]-azetidin-1-yl}-(5-methyl-2-[1,2,3]triazol-2-yl-phenyl)-methanone]: the negative-log IC50 (pIC50) was 6.47 at human orexin-1 receptor and 7.77 on human orexin-2 receptor.
The corresponding values for `Cc1ccc(-c2ccccc2)c(C(=O)N2CC[C@H]2c2nc(-c3cccc(Cl)c3C)no2)c1` [Example 57, {(S)-2-[3-(3-Chloro-2-methyl-phenyl)-[1,2,4]oxadiazol-5-yl]-azetidin-1-yl}-(4-methyl-biphenyl-2-yl)-methanone] are 7.05 and 8.40.
The corresponding values for `Cc1c(Cl)cccc1-c1noc([C@@H]2CCN2C(=O)c2nc(N(C)C)sc2-c2ccccc2)n1` [Example 59, {(S)-2-[3-(3-Chloro-2-methyl-phenyl)-[1,2,4]oxadiazol-5-yl]-azetidin-1-yl}-(2-dimethylamino-5-phenyl-thiazol-4-yl)-methanone] are 7.37 and 8.15.
The like results for `Cc1cccc(-c2scnc2C(=O)N2CC[C@H]2c2nc(-c3cccc(Cl)c3C)no2)c1` [Example 69, {(S)-2-[3-(3-Chloro-2-methyl-phenyl)-[1,2,4]oxadiazol-5-yl]-azetidin-1-yl}-(5-m-tolyl-thiazol-4-yl)-methanone] were, in that order, 6.06 and 6.62.
`COc1cc(C(=O)N2CC[C@H]2c2nc(-c3ccccc3OC(F)(F)F)no2)c(-n2nccn2)cc1C` [Example 27, (5-Methoxy-4-methyl-2-[1,2,3]triazol-2-yl-phenyl)-{(S)-2-[3-(2-trifluoromethoxy-phenyl)-[1,2,4]oxadiazol-5-yl]-azetidin-1-yl}-methanone]: the pIC50 is 6.66 at human orexin-1 receptor and 8.22 on human orexin-2 receptor.
The corresponding values for `COc1cc(C(=O)N2CC[C@H]2c2noc(-c3ccccc3OC(F)(F)F)n2)c(-n2nccn2)cc1F` [Example 87, (4-Fluoro-5-methoxy-2-[1,2,3]triazol-2-yl-phenyl)-{(S)-2-[5-(2-trifluoromethoxy-phenyl)-[1,2,4]oxadiazol-3-yl]-azetidin-1-yl}-methanone] are 5.87 and 7.11.
The corresponding values for `O=C(c1ccc(Cl)cc1-n1nccn1)N1CC[C@H]1c1nc(-c2ccccc2OC(F)(F)F)no1` [Example 77, (4-Chloro-2-[1,2,3]triazol-2-yl-phenyl)-{(S)-2-[3-(2-trifluoromethoxy-phenyl)-[1,2,4]oxadiazol-5-yl]-azetidin-1-yl}-methanone] are 6.21 and 7.55.
As for `Cc1nc(C(=O)N2CC[C@H]2c2nc(-c3ccccc3OC(F)(F)F)no2)c(-c2ccccc2C)s1` [Example 45, (2-Methyl-5-o-tolyl-thiazol-4-yl)-{(S)-2-[3-(2-trifluoromethoxy-phenyl)-[1,2,4]oxadiazol-5-yl]-azetidin-1-yl}-methanone], the figures for the pIC50 on human orexin-1 receptor and on human orexin-2 receptor were 6.13 and 6.38, respectively.
The like results for `O=C(c1ccc(C(F)(F)F)cc1-n1nccn1)N1CC[C@H]1c1nnc(-c2ccccc2OC(F)(F)F)[nH]1` [Example 133, (2-[1,2,3]Triazol-2-yl-4-trifluoromethyl-phenyl)-{(S)-2-[5-(2-trifluoromethoxy-phenyl)-4H-[1,2,4]triazol-3-yl]-azetidin-1-yl}-methanone] were, in that order, 6.44 and 7.77.
For `Cc1cc(-n2nccn2)c(C(=O)N2CC[C@H]2c2noc(-c3ccccc3OC(F)(F)F)n2)cc1Cl` [Example 95, (5-Chloro-4-methyl-2-[1,2,3]triazol-2-yl-phenyl)-{(S)-2-[5-(2-trifluoromethoxy-phenyl)-[1,2,4]oxadiazol-3-yl]-azetidin-1-yl}-methanone], the pIC50 was 7.22 on human orexin-1 receptor and 8.22 at human orexin-2 receptor.
The like results for `Cc1cccc(-c2ocnc2C(=O)N2CC[C@H]2c2nc(-c3cccc(Cl)c3C)no2)c1` [Example 67, {(S)-2-[3-(3-Chloro-2-methyl-phenyl)-[1,2,4]oxadiazol-5-yl]-azetidin-1-yl}-(5-m-tolyl-oxazol-4-yl)-methanone] were, in that order, 6.36 and 6.20.
The corresponding values for `Cc1ccc(C(=O)N2CC[C@H]2c2nc(-c3cccc(F)c3C)no2)c(-n2nccn2)c1` [Example 22, {(S)-2-[3-(3-Fluoro-2-methyl-phenyl)-[1,2,4]oxadiazol-5-yl]-azetidin-1-yl}-(4-methyl-2-[1,2,3]triazol-2-yl-phenyl)-methanone] are 6.09 and 7.64.
The corresponding values for `Cc1cc(-n2nccn2)c(C(=O)N2CC[C@H]2c2nc(-c3ccccc3OC(F)(F)F)no2)cc1Cl` [Example 83, (5-Chloro-4-methyl-2-[1,2,3]triazol-2-yl-phenyl)-{(S)-2-[3-(2-trifluoromethoxy-phenyl)-[1,2,4]oxadiazol-5-yl]-azetidin-1-yl}-methanone] are 6.78 and 7.89.
`Cc1cccc(-c2scnc2C(=O)N2CC[C@H]2c2nc(-c3ccccc3OC(F)(F)F)no2)c1` [Example 51, (5-m-Tolyl-thiazol-4-yl)-{(S)-2-[3-(2-trifluoromethoxy-phenyl)-[1,2,4]oxadiazol-5-yl]-azetidin-1-yl}-methanone]: the pIC50 on human orexin-1 receptor is 6.56; on human orexin-2 receptor, 6.47.
The like results for `Cc1cc(-n2nccn2)c(C(=O)N2CC[C@H]2c2nnc(-c3ccccc3OC(F)(F)F)[nH]2)cc1Cl` [Example 130, (5-Chloro-4-methyl-2-[1,2,3]triazol-2-yl-phenyl)-{(S)-2-[5-(2-trifluoromethoxy-phenyl)-4H-[1,2,4]triazol-3-yl]-azetidin-1-yl}-methanone] were, in that order, 6.61 and 8.30.
The like results for `Cc1nc(C(=O)N2CC[C@H]2c2nc(-c3cccc(Cl)c3C)no2)c(-c2ccccc2F)s1` [Example 55, {(S)-2-[3-(3-Chloro-2-methyl-phenyl)-[1,2,4]oxadiazol-5-yl]-azetidin-1-yl}-[5-(2-fluoro-phenyl)-2-methyl-thiazol-4-yl]-methanone] were, in that order, 5.92 and 6.66.
The corresponding values for `COc1c(F)cccc1-c1noc([C@@H]2CCN2C(=O)c2ccc(C)cc2-n2nccn2)n1` [Example 20, {(S)-2-[3-(3-Fluoro-2-methoxy-phenyl)-[1,2,4]oxadiazol-5-yl]-azetidin-1-yl}-(4-methyl-2-[1,2,3]triazol-2-yl-phenyl)-methanone] are 6.20 and 7.48.
Consider `COc1cc(C(=O)N2CC[C@H]2c2nc(-c3cccc(F)c3OC)no2)c(-n2nccn2)cc1C` [Example 17, {(S)-2-[3-(3-Fluoro-2-methoxy-phenyl)-[1,2,4]oxadiazol-5-yl]-azetidin-1-yl}-(5-methoxy-4-methyl-2-[1,2,3]triazol-2-yl-phenyl)-methanone], for which the figures for the pIC50 on human orexin-1 receptor and on human orexin-2 receptor were 6.36 and 8.05, respectively.
The like results for `Cc1ccc(-n2nccn2)c(C(=O)N2CC[C@H]2c2nc(-c3cccc(Cl)c3C)no2)c1` [Example 7, {(S)-2-[3-(3-Chloro-2-methyl-phenyl)-[1,2,4]oxadiazol-5-yl]-azetidin-1-yl}-(5-methyl-2-[1,2,3]triazol-2-yl-phenyl)-methanone] were, in that order, 6.92 and 8.00.
Regarding `Cc1cc(C(=O)N2CC[C@H]2c2nnc(-c3ccccc3OC(F)(F)F)[nH]2)c(-n2nccn2)cc1C` [Example 128, (4,5-Dimethyl-2-[1,2,3]triazol-2-yl-phenyl)-{(S)-2-[5-(2-trifluoromethoxy-phenyl)-4H-[1,2,4]triazol-3-yl]-azetidin-1-yl}-methanone], the results for the pIC50 on human orexin-1 receptor and on human orexin-2 receptor were 6.38 and 8.05, respectively.
The like results for `O=C(c1cc(OC(F)(F)F)ccc1-n1nccn1)N1CC[C@H]1c1nc(-c2ccccc2OC(F)(F)F)no1` [Example 47, (2-[1,2,3]Triazol-2-yl-5-trifluoromethoxy-phenyl)-{(S)-2-[3-(2-trifluoromethoxy-phenyl)-[1,2,4]oxadiazol-5-yl]-azetidin-1-yl}-methanone] were, in that order, 6.21 and 6.14.
The corresponding values for `Cc1ccc(-n2nccn2)c(C(=O)N2CC[C@H]2c2noc(-c3cccc(F)c3C)n2)c1` [Example 93, {(S)-2-[5-(3-Fluoro-2-methyl-phenyl)-[1,2,4]oxadiazol-3-yl]-azetidin-1-yl}-(5-methyl-2-[1,2,3]triazol-2-yl-phenyl)-methanone] are 6.18 and 8.10.

Broadly, the pIC50 is −log10 of the IC50, conventionally taken in molar units.

(Values after patent US9403813B2, “Azetidine amide derivatives as orexin receptor antagonists” (ACTELION PHARMACEUTICALS LTD, priority 2013, dated 2016).)
